Converted amounts (≈) assume the structure as drawn. Read-outs that look alike come from different tables or passages of the source.
What was measured:
[1] = target: P. aeruginosa LpxC (Pseudomonas aeruginosa (strain ATCC 15692 / DSM 22644 / CIP 104116 / JCM 14847 / LMG 12228 / 1C / PRS 101 / PAO1), UniProt P47205); experiment: P. aeruginosa LpxC Inhibition Assay; type: biochemical; conditions: 1 nM P. aeruginosa LpxC, 2 μM substrate, LC-MS/MS; read-out: PA LpxC IC50
Text: The P. aeruginosa LpxC protein is produced according to the general method of Hyland et al (Journal of Bacteriology 1997 179, 2029-2037: Cloning, expression and purification of UDP-3-O-acyl-GIcNAc deacetylase from Pseudomonas aeruginosa: a metalloamidase of the lipid A biosynthesis pathway). The LC-MS/MS method for quantitation of LpxC product was developed using an Agilent 1200 Capillary HPLC system coupled to an Applied Biosystems MDS Sciex 4000QTRAP mass spectrometer. Both instruments are controlled using the Applied Biosystems MDS Sciex Analyst software. LpxC reaction product (UDP-3-O—(R-3-hydroxyacyl)-glucosamine) was produced by hydrolysis of LpxC substrate catalyzed by P.a. LpxC and purified using reversed phase chromatography on a Phenomenex Luna C18(2) 4.6×50 mm column. An LpxC product calibration curve was generated to evaluate the sensitivity and dynamic range of the LC-MS/MS method. Briefly, compounds are pre-incubated with 1 nM P. aeruginosa LpxC for 30 min. at room temperature. Reactions are initiated by the addition of 2 μM UDP-3-O—(R-3-hydroxydecanoyl)-GIcNAc. Reactions are conducted in a 384-well plate with a total volume of 50 μL in each well containing 50 mM Sodium phosphate pH 7.5, 0.005% Trition X-100 for 20 min at room temperature. After quenching with 1.8% HOAc (5 μL of a 20% HOAc added to each well), reaction mixtures are analyzed using the LC-MS/MS method and peak areas are transformed into product concentration using a LpxC product calibration curve. Total activity (0% inhibition control) is obtained from reactions with no inhibitors and 100% inhibition control is the background using quenched samples before reaction starts. For IC50 determinations, peak areas are converted to percent inhibition in Microsoft Excel. Percent inhibition values are plotted vs. log compound concentration using XLfit. Data is fit to the four-parameter logistic equation using the non-linear regression algorithm in XLfit to return the IC50 and hill slope values.

[2] = tested on: P. aeruginosa PAO1; experiment: Susceptibility Testing (MIC, broth microdilution); type: cell-based, Pseudomonas aeruginosa; conditions: Pseudomonas aeruginosa, PAO1, 20 h, read-out: PAO1 MIC
Protocol: Bacterial isolates were cultivated from −70° C. frozen stocks by two consecutive overnight passages at 35° C. in ambient air on 5% blood agar (Remel, Lenexa, Kans.). Quality control and P. aeruginosa ATCC 27853) is from the American Type Culture Collection (ATCC; Rockville, Md.) and PAO1 was received from Dr. K. Poole.
Minimal Inhibitory Concentrations (MICs) were determined by the broth microdilution method in accordance with Clinical and Laboratories Institute (CLSI) guidelines. In brief, fresh bacterial overnight cultures were resuspended in sterile saline, adjusted to a 0.5 McFarland turbidity standard and then diluted […] in cation adjusted Mueller-Hinton Broth II (MHB; Remel BBL) to yield a final inoculum of approximately 5×10^5 colony-forming units (CFU)/mL. Two-fold serial dilutions of compounds were prepared in 100% dimethyl sulfoxide (DMSO) at 100-fold the highest final assay concentration; the resulting dilution series of compounds were diluted 1:10 with sterile water. Ten μl of the drug dilution series in 10% DMSO was transferred to microtiter wells and 90 μl of bacterial suspension was inoculated into the wells. All inoculated microdilution trays were incubated in ambient air at […] for 20 hours. Following incubation, assay plates were read in a microtiter plate reader at 600 nm and visually inspected to confirm the MIC endpoint well with the OD value. The lowest concentration of the compound that prevented visible growth was recorded as the MIC. Performance of the assay was monitored by testing ciprofloxacin against laboratory quality control strains in accordance with guidelines of the CLSI.

[3] = P. aeruginosa PAO1, broth microdilution, 20 hours

Structure (SMILES) | IC50 [1] | MIC [2, 3] | MIC [2]
CC(CC1CC(c2ccc(Br)cc2)=NO1)(C(=O)NO)S(C)(=O)=O (single isomer, unassigned) [Compound 1-B, 3-(3-(4-bromophenyl)-4,5-dihydroisoxazol-5-yl)-N-hydroxy-2-methyl-2-(methylsulfonyl)propanamide] | < 0.5 nM | 1 µg/mL (≈ 2.47 µM) | 
CC(CC1CC(c2ccc(-c3ccccc3)cc2)=NO1)(C(=O)NO)S(C)(=O)=O (single isomer, unassigned) [Compound 3-B, 3-(3-([1,1′-biphenyl]-4-yl)-4,5-dihydroisoxazol-5-yl)-N-hydroxy-2-methyl-2-(methylsulfonyl)propanamide] | 1 nM | 0.25 µg/mL (≈ 0.621 µM) | 
CC#CCOc1ccc(C2=NOC(CC(C)(C(=O)NO)S(C)(=O)=O)C2)cc1 (single isomer, unassigned) [Compound 4-B, 3-(3-(4-(but-2-yn-1-yloxy)phenyl)-4,5-dihydroisoxazol-5-yl)-N-hydroxy-2-methyl-2-(methylsulfonyl)propanamide] | 24 nM |  | 8 µg/mL (≈ 20.3 µM)
CC(CC1CC(c2ccc(C3CC3)cc2)=NO1)(C(=O)NO)S(C)(=O)=O (single isomer, unassigned) [Compound 5-A, 3-(3-(4-cyclopropylphenyl)-4,5-dihydroisoxazol-5-yl)-N-hydroxy-2-methyl-2-(methylsulfonyl)propanamide] | 7 nM | 2 µg/mL (≈ 5.46 µM) | 
CCC#Cc1ccc(C2=NOC(CC(C)(C(=O)NO)S(C)(=O)=O)C2)cc1 (single isomer, unassigned) [Compound 8-B, 3-(3-(4-(but-1-yn-1-yl)phenyl)-4,5-dihydroisoxazol-5-yl)-N-hydroxy-2-methyl-2-(methylsulfonyl)propanamide] | 0.5 nM | 1 µg/mL (≈ 2.64 µM) | 
CC(CC1CC(c2ccc(C#CCCO)cc2)=NO1)(C(=O)NO)S(C)(=O)=O (single isomer, unassigned) [Compound 10-B, N-hydroxy-3-(3-(4-(4-hydroxybut-1-yn-1-yl)phenyl)-4,5-dihydroisoxazol-5-yl)-2-methyl-2-(methylsulfonyl)propanamide] | < 0.5 nM | 1 µg/mL (≈ 2.54 µM) | 
CC#Cc1ccc(C2=NOC(CC(C)(C(=O)NO)S(C)(=O)=O)C2)cc1F (single isomer, unassigned) [Compound 12-B, 3-(3-(3-fluoro-4-(prop-1-yn-1-yl)phenyl)-4,5-dihydroisoxazol-5-yl)-N-hydroxy-2-methyl-2-(methylsulfonyl)propanamide] | 2 nM | 2 µg/mL (≈ 5.23 µM) | 
CC(CC1CC(c2ccc(C#CC3CC3)c(F)c2)=NO1)(C(=O)NO)S(C)(=O)=O (single isomer, unassigned) [Compound 13-B, 3-(3-(4-(cyclopropylethynyl)-3-fluorophenyl)-4,5-dihydroisoxazol-5-yl)-N-hydroxy-2-methyl-2-(methylsulfonyl)propanamide] | 1 nM | 1 µg/mL (≈ 2.45 µM) | 
CC#Cc1ccc(C2=NOC(CC(C)(C(=O)NO)S(C)(=O)=O)C2)nc1 (single isomer, unassigned) [Compound 14-B, N-hydroxy-2-methyl-2-(methylsulfonyl)-3-(3-(5-(prop-1-yn-1-yl)pyridin-2-yl)-4,5-dihydroisoxazol-5-yl)propanamide] | 17 nM | 8 µg/mL (≈ 21.9 µM) | 
CC(CC1CC(c2ccc(C#CC3CC3)cn2)=NO1)(C(=O)NO)S(C)(=O)=O (single isomer, unassigned) [Compound 15-B, 3-(3-(5-(cyclopropylethynyl)pyridin-2-yl)-4,5-dihydroisoxazol-5-yl)-N-hydroxy-2-methyl-2-(methylsulfonyl)propanamide] | 4 nM | 8 µg/mL (≈ 20.4 µM) | 
CC#Cc1ccc(C2=NOC(CC(C)(C(=O)NO)S(C)(=O)=O)C2)c(F)c1 (single isomer, unassigned) [Compound 16-B, 3-(3-(2-fluoro-4-(prop-1-yn-1-yl)phenyl)-4,5-dihydroisoxazol-5-yl)-N-hydroxy-2-methyl-2-(methylsulfonyl)propanamide] | 0.6 nM | 1 µg/mL (≈ 2.61 µM) | 
CC(CC1CC(c2ccc(C#CC3CC3)cc2F)=NO1)(C(=O)NO)S(C)(=O)=O (single isomer, unassigned) [Compound 17-B, 3-(3-(4-(cyclopropylethynyl)-2-fluorophenyl)-4,5-dihydroisoxazol-5-yl)-N-hydroxy-2-methyl-2-(methylsulfonyl)propanamide] | < 0.5 nM | 0.5 µg/mL (≈ 1.22 µM) | 
CC#Cc1ccc(C2=NO[C@@H](C[C@](C)(C(=O)NO)S(C)(=O)=O)C2)cc1 [Compound 2-A, (R)—N-hydroxy-2-methyl-2-(methylsulfonyl)-3-((R)-3-(4-(prop-1-yn-1-yl)phenyl)-4,5-dihydroisoxazol-5-yl)propanamide] | 0.8 nM | 0.25 µg/mL (≈ 0.686 µM) | 
C[C@@](C[C@H]1CC(c2ccc(C#CC3CC3)cc2)=NO1)(C(=O)NO)S(C)(=O)=O [Compound 6-A, (R)-3-((R)-3-(4-(cyclopropylethynyl)phenyl)-4,5-dihydroisoxazol-5-yl)-N-hydroxy-2-methyl-2-(methylsulfonyl)propanamide] | 0.7 nM | 0.25 µg/mL (≈ 0.64 µM) | 
C[C@@H](O)COc1ccc(-c2ccc(C3=NO[C@@H](C[C@](C)(C(=O)NO)S(C)(=O)=O)C3)cc2)cc1 [Compound 61, (R)—N-hydroxy-3-((R)-3-(4′-((R)-2-hydroxypropoxy)-[1,1′-biphenyl]-4-yl)-4,5-dihydroisoxazol-5-yl)-2-methyl-2-(methylsulfonyl)propanamide] |  | 0.25 µg/mL (≈ 0.525 µM) | 
C[C@@](C[C@H]1CC(c2ccc(-c3ccc(C(O)CO)cc3)cc2)=NO1)(C(=O)NO)S(C)(=O)=O (stereo partly drawn) [Compound 72, (2R)-3-((5R)-3-(4′-(1,2-dihydroxyethyl)-[1,1′-biphenyl]-4-yl)-4,5-dihydroisoxazol-5-yl)-N-hydroxy-2-methyl-2-(methylsulfonyl)propanamide] |  | 0.35 µg/mL (≈ 0.757 µM) | 
C[C@@](C[C@H]1CC(c2ccc(-c3ccc(C4(CO)CC4)cc3)cc2)=NO1)(C(=O)NO)S(C)(=O)=O [Compound 73, (R)—N-hydroxy-3-((R)-3-(4′-(1-(hydroxymethyl)cyclopropyl)-[1,1′-biphenyl]-4-yl)-4,5-dihydroisoxazol-5-yl)-2-methyl-2-(methylsulfonyl)propanamide] |  | 0.25 µg/mL (≈ 0.529 µM) | 
COc1cc(-c2ccc(C3=NO[C@@H](C[C@](C)(C(=O)NO)S(C)(=O)=O)C3)cc2)c(F)cn1 [Compound 80, (R)-3-((R)-3-(4-(5-fluoro-2-methoxypyridin-4-yl)phenyl)-4,5-dihydroisoxazol-5-yl)-N-hydroxy-2-methyl-2-(methylsulfonyl) propanamide] |  | 1 µg/mL (≈ 2.21 µM) | 
C[C@@](C[C@H]1CC(c2ccc(C#Cc3ccc([C@@H](O)CO)cc3)cc2)=NO1)(C(=O)NO)S(C)(=O)=O [Compound 97, (R)-3-((R)-3-(4-((4-((R)-1,2-dihydroxyethyl)phenyl)ethynyl)phenyl)-4,5-dihydroisoxazol-5-yl)-N-hydroxy-2-methyl-2-(methylsulfonyl) propanamide] |  | 0.71 µg/mL (≈ 1.46 µM) | 
COc1ccc(-c2ccc(C3=NO[C@@H](C[C@](C)(C(=O)NO)S(C)(=O)=O)C3)cc2F)cn1 [Compound 105, (R)-3-((R)-3-(3-fluoro-4-(6-methoxypyridin-3-yl)phenyl)-4,5-dihydroisoxazol-5-yl)-N-hydroxy-2-methyl-2-(methylsulfonyl)propanamide] | 1 nM |  | 
C[C@@](C[C@H]1CC(c2ccc(-c3ccc(CO)nc3)c(F)c2)=NO1)(C(=O)NO)S(C)(=O)=O [Compound 109, (R)-3-((R)-3-(3-fluoro-4-(6-(hydroxymethyl)pyridin-3-yl)phenyl)-4,5-dihydroisoxazol-5-yl)-N-hydroxy-2-methyl-2-(methylsulfonyl)propanamide] | 5 nM |  | 
